Assay results from patent US20220133761A1, “NEUTROPHIL APOPTOSIS INDUCED BY NANOPARTICLES FOR TREATING INFLAMMATORY DISEASES” (WASHINGTON STATE UNIVERSITY, priority 2020, published 2022).

Assays:
[1] = tested on: differentiated HL-60 cells; assay: Apoptosis analysis, Annexin V-FITC / 7AAD staining (flow cytometry, CLSM); format: cell-based, human
Protocol: To investigate the apoptosis of neutrophils induced by DOX, Annexin V-FITC and 7AAD were used to double stain differentiated HL-60 cells. […] The cells were re-suspended in a binding buffer for staining of Annexin V-FITC and 7AAD (emission at 650 nm) according to the manufacturer's protocol (Invitrogen). Stained cells were analyzed using a flow cytometer and imaged by a Nikon A1R^+ confocal laser scanning microscope.

[2] = Serum stability of nanoparticles in PBS with 20% FBS; format: physicochemical; settings: pH 7.4, incubation for 4 days
Protocol: Particle size and polydispersity indexes (PDI) were measured using Malvern Zetasizer Nano90 (Westborough, Mass.). The samples were incubated in PBS at pH 7.4 for 2 h, and the measurements were conducted in a 1.0 mL quartz cuvette using a diode laser of 633 nm at 25° C. and a scattering angle was fixed at 90°. To evaluate their serum stability, nanoparticles were dispersed in 20% FBS PBS solution (pH 7.4) at a final concentration of 1 mg/mL. Nanoparticle sizes were measured at the predefined time points. Transmission electron microscopy (TEM) of nanoparticles was also performed using a FEI Technai G2 20 Twin TEM (Hillsboro, Oreg.).

LPS-challenged mice [3] = assay: Second LPS hit (i.t.) in mice that survived sepsis after NP treatment
Protocol: The mice were challenged with LPS (i.p., 50 mg/kg) or PBS (control). 4 h later, the LPS-challenged mice were i.v. treated with DOX-hyd-BSA NPs at 0.2 mg/kg of DOX. The control mice were not treated with LPS and NPs. 72 h later, all survival and control (healthy) mice were challenged with LPS (i.t., 10 mg/kg).
The combinatory experiments were designed in which a mouse was i.p. challenged with LPS to cause sepsis, and then a mouse was treated with DOX-loaded NPs 4 h after the LPS challenge. At 72 h after the LPS challenge, the survival mouse was i.t. administered to examine whether neutrophils can transmigrate and respond to the second hit of LPS (see FIG. 10M of experimental protocol diagram).

[4] = pH-triggered DOX release, UV-Vis of supernatants after 2 h incubation; format: physicochemical
Protocol: To confirm the pH-triggered drug release property, BSA NPs, DOX-ab-BSA NPs and DOX-hyd-BSA NPs were incubated in PBS at pH 7.4, 6.5 and 5.0 for 2 h, respectively. After centrifugation, the supernatants were collected to determine DOX concentrations using a UV-Vis spectrometer.

[5] = tested on: differentiated HL60 cells; assay: Uptake of DOX-hyd-BSA NPs by differentiated HL60 cells; format: cell-based, human; settings: 10^6 cells/mL, 2 h at different DOX concentrations; time course at 30 μg/mL DOX
Protocol: FIG. 5C and FIG. 5D show resultant uptake data of the present application, wherein DOX-hyd-BSA NPs by differentiated HL60 cells were evaluated in vitro.

human neutrophils = assay: Uptake of nanoparticles by human neutrophils in vitro (flow cytometry); format: cell-based; settings: 30 ug/ml, 2 h
Protocol: FIG. 15 show novel data of uptake of DOX-hdy-BSA NPs by human neutrophils. Human neutrophils were incubated with DOX-hyd-BSA NPs (the concentration at 30 ug/ml) for 2 h, and then the cells were washed, and they were analyzed by flowcytometry.
It is also to be noted that the methods herein also pertain to making human albumin nanoparticles similar to BSA NPs. […] Human neutrophils were incubated with DOX-hyd-BSA NPs (the concentration at 30 ug/ml) for 2 h, and then the cells were washed and analyzed by flowcytometry.

LPS-challenged mice [6] = assay: Acute lung inflammation mouse model (i.t. LPS), BALF neutrophils and cytokines; format: in vivo; settings: vs free DOX and DOX-ab-BSA NPs
Protocol: Mice were anesthetized, and placed in a supine position head up on a board tilted at 15°. Afterwards, 10 mg/kg of LPS in HBSS was intratracheally (i.t.) administrated to mice with a FMJ-250 High Pressure Syringe (Penn-Century, Wyndmoor, Pa.). Mice were held upright for 2 min after administration.
Mice were challenged with i.t. injection of LPS (10 mg/kg). […] At 20 h post-drug administration, the mice were anesthetized with i.v. injection of a mixture of ketamine and xylazine. The BALF was collected by inserting a needle into the upper trachea. 0.9 mL HBSS was infused into the lungs and carefully withdrawn to obtain BALF. This process was repeated three times. BALF was collected and centrifuged at 350 g for 10 min at 4° C. The supernatant was collected for ELISA analysis. Afterwards, the cells were re-suspended in 0.5 ml of HBSS. The total cell number was determined with a hemocytometer.
Flow cytometry was utilized to quantify neutrophils in BALF. In detail, neutrophils from BALF were washed with 1 mL of 5% BSA in HBSS and centrifuged at 350 g for 10 min at 4° C. for three times, which was finally re-suspended in 400 μL of 5% BSA in HBSS. 3 μL of Alexa Fluor-647-labeled anti-mouse LY-6G antibody was added and incubated for 20 min in the dark, followed by washing with 1 mL of 0.1% BSA in HBSS under centrifugation for three times. Samples were then re-suspended in 400 μL 0.1% BSA in HBSS and filtered by a 100 μm filter, and analyzed by flow cytometer (Accuri C6 flow cytometer, BD Biosciences, San Jose, Calif.).
BALF was collected and centrifuged at 350 g for 10 min as described above. Supernatants from BALF were harvested for ELISA analysis. Concentrations of TNF-α, IL-6 and IL-1β in supernatants were determined with commercial ELISA kits according to the manufacturer's instructions (Biolegend, San Diego, Calif.). The triplicate experiment was conducted.

cerebral I/R mouse model = assay: Middle cerebral artery occlusion (MCAO) cerebral I/R mouse model; format: in vivo
Protocol: CD1 mice were used. Mice were anesthetized using 100 mg/kg of ketamine and 5 mg/kg of xylazine. They were positioned in the supine position on a heating pad. A carotid artery (CA) was exposed via the midline neck incision. An external carotid artery (ECA) was separated and occulated with two knots. Next, the internal carotid artery (ICA) was isolated, and the CA and ICA were clipped. A small hole was cut in the ECA above the second knot. A 6-0 medium MCAO suture was then introduced into ICA. Mice were kept for 60 min after occlusion in a heated cage, and the suture was withdrawn for reperfusion. Finally, the skin was closed and the mice were returned to the individual cage.
The damaged brain tissues were collected 24 h after MCAO and homogenized in PBS with 5% hexadecyltrimethylammonium bromide (HTAB). The homogenate was sonicated, and centrifuged at 13,000 rpm for 10 min. Next, 10 μL supernatant was loaded into each well of a 96-well plate. A solution of o-Dianisidine dihydrochloride with 0.0005% hydrogen peroxide in potassium phosphate buffer was added to the samples. Absorbance was measured at 450 nm. MPO activity is expressed as change in absorbance per minute per gram of tissue.
The damaged brain tissues of mice were collected 24 h after MCAO surgery and homogenized in PBS buffer. The level of cytokines (TNF-α, IL-1β, IL-6) was quantified using commercial ELISA assay as aforementioned.
Videos were taken 24 h after MCAO surgery and neurological deficit scores were given by two people. The scores are divided into five grades for neurological scores of mice after cerebral ischemia.

[7] = 0.2 mg/kg (DOX) i.v. 4 h after i.t. LPS
[8] = 0.2 mg/kg DOX i.v. 1 h after reperfusion, 22 h post-injection, vs free DOX and PBS

## DOX-hyd-BSA NPs
[1]; 24 h, DOX 3 μg/mL
  apoptotic cells by flow cytometry: 89%
[1]; 24 h treatment
  Annexin V-FITC / 7AAD staining by confocal microscopy: contained staining of Annexin-V-FITC, and less staining of 7AAD
[2]
  serum stability (aggregation, diameter change): no aggregation (diameter change) was observed
LPS-challenged mice [3]; 0.2 mg (DOX)/kg dose
  body weight of mice that survived sepsis: returned to their initial weight
LPS-challenged mice [3]; i.t. LPS 10 mg/kg at 72 h, BALF at 84 h, vs healthy mice
  response of neutrophils to second LPS challenge (BALF neutrophils, cytokines): can immediately respond to the challenge of LPS like what the healthy mice did
[4]; pH 5.0 and 6.5, 2 h incubation in PBS
  DOX absorption at 480 nm in supernatant: Absorption of DOX molecules at 480 nm was observed
[4]; pH 7.4, 2 h incubation in PBS
  DOX in supernatant: did not observe DOX in the supernatant
[5]
  DOX uptake by cells: taken up efficiently
Human neutrophils
  uptake by human neutrophils: can be efficiently taken up
LPS-challenged mice [6]; 0.2 mg/kg (DOX) i.v. 4 h after i.t. LPS 10 mg/kg
  neutrophils in BALF: surprisingly and dramatically shown to decrease compared to controls
LPS-challenged mice [6]; [7]
  IL-1β in BALF: decreased
  IL-6 in BALF: decreased
  TNF-α in BALF: decreased
Cerebral I/R mouse model; [8]
  cytokines in the brain (TNF-α, IL-1β, IL-6): significantly reduced
  neutrophil numbers in the brain (MPO activity): significantly reduced
Cerebral I/R mouse model; 0.2 mg/kg of DOX, 24 h after MCAO
  neurological deficits (behavior scores): enhanced mouse neurological recovery and improved mouse movements
